Test results reported in PubChem BioAssay (NCI).
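Exposure lasted 48 hours, with cells grown in 96-well plates and compounds tested at five concentrations. The concentration for 50% growth inhibition is given as GI50. TGI is the concentration that stops growth completely.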

Legend:
Experiment in all cases: DTP human tumour cell line panel, 48 h
[1] = tested on: UACC-257 melanoma
[2] = tested on: A498 renal
[3] = tested on: UO-31 renal
[4] = tested on: SF-539 CNS
[5] = tested on: HL-60(TB) leukemia
[6] = tested on: LOX IMVI melanoma
[7] = tested on: NCI-H522 lung
[8] = tested on: SW-620 colon
[9] = tested on: HT29 colon
[10] = tested on: TK-10 renal
[11] = tested on: HCC-2998 colon
[12] = tested on: SF-268 CNS
[13] = tested on: DU-145 prostate
[14] = tested on: MALME-3M melanoma
[15] = tested on: ACHN renal
[16] = tested on: PC-3 prostate
[17] = tested on: MDA-MB-435
[18] = tested on: NCI-H226 lung
[19] = tested on: SF-295 CNS
[20] = tested on: SK-MEL-2 melanoma
[21] = tested on: HOP-92 NSCLC
[22] = tested on: OVCAR-8 ovarian
[23] = tested on: SN12C renal
[24] = tested on: UACC-62 melanoma
[25] = tested on: SK-MEL-5 melanoma
[26] = tested on: CCRF-CEM leukemia
[27] = tested on: SK-OV-3 ovarian
[28] = tested on: HCT-15 colon
[29] = tested on: KM12 colon
[30] = tested on: SK-MEL-28 melanoma
[31] = tested on: HCT-116 colon
[32] = tested on: OVCAR-5 ovarian
[33] = tested on: T-47D breast
[34] = tested on: OVCAR-3 ovarian
[35] = tested on: U251 CNS
[36] = tested on: IGROV1 ovarian
[37] = tested on: A549 NSCLC
[38] = tested on: BT-549 breast
[39] = tested on: EKVX NSCLC
[40] = tested on: MDA-MB-231 breast
[41] = tested on: MOLT-4 leukemia
[42] = tested on: 786-0 renal
[43] = tested on: RXF 393 renal
[44] = tested on: OVCAR-4 ovarian
[45] = tested on: COLO 205 colon
[46] = tested on: NCI/ADR-RES ovarian
[47] = tested on: MCF7 breast
[48] = tested on: NCI-H460 lung
[49] = tested on: CAKI-1 renal
[50] = tested on: HS 578T breast
[51] = tested on: SNB-19 CNS
[52] = tested on: HOP-62 NSCLC
[53] = tested on: SNB-75 CNS

With COC(=O)OCc1ccc2c(c1)C(=O)c1c-2n(CCCBr)c(=O)c2cc([N+](=O)[O-])ccc12 the GI50 [1] was > 100 µM, the TGI [1] was > 100 µM and the GI50 [2] was 57.6 µM. For the same compound, the TGI [2] was > 100 µM, the GI50 [3] was > 100 µM and the TGI [3] was > 100 µM. The GI50 [4] was 56 µM, the TGI [4] was > 100 µM and the GI50 [5] was 70.2 µM. The TGI [5] was > 100 µM, the GI50 [6] was 74.3 µM and the TGI [6] was > 100 µM. The GI50 [7] was > 100 µM, the TGI [7] was > 100 µM and the GI50 [8] was > 100 µM. The TGI [8] was > 100 µM, the GI50 [9] was > 100 µM and the TGI [9] was > 100 µM. The GI50 [10] was 19.1 µM, the TGI [10] was 61.3 µM and the GI50 [11] was 61.3 µM. The TGI [11] was > 100 µM, the GI50 [12] was > 100 µM and the TGI [12] was > 100 µM. The GI50 [13] was > 100 µM, the TGI [13] was > 100 µM and the GI50 [14] was > 100 µM. For the same compound, the TGI [14] was > 100 µM, the GI50 [15] was 24.2 µM and the TGI [15] was 93.8 µM. For the same compound, the GI50 [16] was > 100 µM, the TGI [16] was > 100 µM and the GI50 [17] was > 100 µM. For the same compound, the TGI [17] was > 100 µM, the GI50 [18] was > 100 µM and the TGI [18] was > 100 µM. The GI50 [19] was 31.7 µM, the TGI [19] was > 100 µM and the GI50 [20] was > 100 µM. The TGI [20] was > 100 µM, the GI50 [21] was 28.9 µM and the TGI [21] was 77.1 µM. The GI50 [22] was > 100 µM, the TGI [22] was > 100 µM and the GI50 [23] was > 100 µM. For the same compound, the TGI [23] was > 100 µM, the GI50 [24] was 33.5 µM and the TGI [24] was > 100 µM. For the same compound, the GI50 [25] was > 100 µM, the TGI [25] was > 100 µM and the GI50 [26] was 45.9 µM. For the same compound, the TGI [26] was > 100 µM, the GI50 [27] was 31.1 µM and the TGI [27] was > 100 µM. The GI50 [28] was > 100 µM, the TGI [28] was > 100 µM and the GI50 [29] was > 100 µM. The TGI [29] was > 100 µM, the GI50 [30] was > 100 µM and the TGI [30] was > 100 µM. For the same compound, the GI50 [31] was 81.2 µM, the TGI [31] was > 100 µM and the GI50 [32] was > 100 µM. The TGI [32] was > 100 µM, the GI50 [33] was > 100 µM and the TGI [33] was > 100 µM. For the same compound, the GI50 [34] was > 100 µM, the TGI [34] was > 100 µM and the GI50 [35] was 35.3 µM. The TGI [35] was > 100 µM, the GI50 [36] was 54.3 µM and the TGI [36] was > 100 µM. For the same compound, the GI50 [37] was > 100 µM, the TGI [37] was > 100 µM and the GI50 [38] was 44.9 µM. The TGI [38] was > 100 µM, the GI50 [39] was 74.3 µM and the TGI [39] was > 100 µM. For the same compound, the GI50 [40] was 52.7 µM, the TGI [40] was > 100 µM and the GI50 [41] was 31.6 µM. For the same compound, the TGI [41] was > 100 µM, the GI50 [42] was 31.7 µM and the TGI [42] was 92 µM. The GI50 [43] was 0.16 µM, the TGI [43] was 8.45 µM and the GI50 [44] was > 100 µM. The TGI [44] was > 100 µM, the GI50 [45] was > 100 µM and the TGI [45] was > 100 µM. For the same compound, the GI50 [46] was > 100 µM, the TGI [46] was > 100 µM and the GI50 [47] was > 100 µM. For the same compound, the TGI [47] was > 100 µM, the GI50 [48] was > 100 µM and the TGI [48] was > 100 µM. It also gave a GI50 [49] of 35.5 µM, a TGI [49] of 75.4 µM and a GI50 [50] of 31 µM. For the same compound, the TGI [50] was > 100 µM, the GI50 [51] was 79 µM and the TGI [51] was > 100 µM. The GI50 [52] was 27.7 µM, the TGI [52] was > 100 µM and the GI50 [53] was 14.9 µM. For the same compound, the TGI [53] was 34.4 µM.
